Measurements as given in ChEMBL document CHEMBL4043153, “Lead selection of antiparasitic compounds from a focused library of benzenesulfonyl derivatives of heterocycles” (Bioorg Med Chem Lett, 2017).
The source made the active and inactive calls. No cut-off for these calls is given here.

Experiments:
Leishmania donovani [1] = test: Antiparasitic activity against Leishmania donovani MHOM-ET-67/L82 axenic amastigotes assessed as growth inhibition at 4.8 ug/ml after 72 hrs by resazurin dye-based fluorometric analysis relative to control; assay type: functional; conditions: MHOM-ET-67/L82, 72 h, read-out: GI
Leishmania donovani [2] = test: Antiparasitic activity against Leishmania donovani MHOM-ET-67/L82 axenic amastigotes assessed as growth inhibition at 0.8 ug/ml after 72 hrs by resazurin dye-based fluorometric analysis relative to control; assay type: functional; conditions: MHOM-ET-67/L82, 72 h, read-out: GI
Leishmania donovani [3] = test: Antiparasitic activity against Leishmania donovani MHOM-ET-67/L82 axenic amastigotes after 72 hrs by Alamar blue assay; assay type: functional; conditions: MHOM-ET-67/L82, 72 h
[4] = test system: Trypanosoma brucei rhodesiense; test: Antiparasitic activity against Trypanosoma brucei rhodesiense STIB 900 trypomastigote bloodstream form assessed as growth inhibition at 0.8 ug/ml after 72 hrs by resazurin dye-based fluorometric analysis relative to control; assay type: functional; conditions: STIB 900, 72 h, read-out: GI
Trypanosoma cruzi [5] = test: Antiparasitic activity against Trypanosoma cruzi Tulahuen C4 intracellular amastigotes infected in rat L6 cells assessed as growth inhibition at 4.8 ug/ml after 96 hrs by CPRG/Nonidet reagent based photometric analysis relative to control; assay type: functional; conditions: Tulahuen C4, L6, 96 h, read-out: GI
Trypanosoma cruzi [6] = test: Antiparasitic activity against Trypanosoma cruzi Tulahuen C4 intracellular amastigotes infected in rat L6 cells assessed as growth inhibition at 0.8 ug/ml after 96 hrs by CPRG/Nonidet reagent based photometric analysis relative to control; assay type: functional; conditions: Tulahuen C4, L6, 96 h, read-out: GI
Plasmodium falciparum [7] = test: (§1) Antiparasitic activity against intraerythrocytic form of chloroquine/pyrimethamine-resistant Plasmodium falciparum K1 infected in human RBC preincubated for 48 hrs followed by [3H]-hypoxanthine addition measured after 24 hrs by liquid scintillation counting analysis; assay type: functional
Trypanosoma cruzi [8] = test: Antiparasitic activity against Trypanosoma cruzi Tulahuen C4 intracellular amastigotes infected in rat L6 cells after 96 hrs by CPRG/Nonidet reagent based photometric analysis; assay type: functional, cell-based; conditions: Tulahuen C4, L6, 96 h
Plasmodium falciparum [9] = test: as §1, with “RBC assessed as growth inhibition at 0.8 ug/ml” for “RBC”, “analysis relative to control” for “analysis”; assay type: functional; conditions: read-out: GI
Plasmodium falciparum [10] = test: as §1, with “RBC assessed as growth inhibition at 4.8 ug/ml” for “RBC”, “analysis relative to control” for “analysis”; assay type: functional; conditions: read-out: GI
[11] = Selectivity index, ratio of IC50 for rat L6 cells to IC50 for Trypanosoma cruzi Tulahuen C4 intracellular amastigotes infected in rat L6 cells; assay type: toxicity, cell-based; conditions: read-out: Ratio IC50
[12] = test system: Trypanosoma brucei rhodesiense; test: Antiparasitic activity against Trypanosoma brucei rhodesiense STIB 900 trypomastigote bloodstream form assessed as growth inhibition at 4.8 ug/ml after 72 hrs by resazurin dye-based fluorometric analysis relative to control; assay type: functional; conditions: STIB 900, 72 h, read-out: GI
L6 [13] = test: Cytotoxicity against rat L6 cells assessed as cell viability after 72 hrs by Alamar blue assay; assay type: cell-based; conditions: L6, 72 h
[14] = Selectivity index, ratio of IC50 for rat L6 cells to IC50 for Leishmania donovani MHOM-ET-67/L82 axenic amastigotes; assay type: toxicity; conditions: read-out: Ratio IC50
[15] = Selectivity index, ratio of IC50 for rat L6 cells to IC50 for intraerythrocytic form of chloroquine/pyrimethamine-resistant Plasmodium falciparum K1 infected in human RBC; assay type: toxicity; conditions: read-out: Ratio IC50
Trypanosoma cruzi [16] = test: Antiparasitic activity against Trypanosoma cruzi Tulahuen C4 intracellular amastigotes infected in rat L6 cells; assay type: functional, cell-based
L6 [17] = test: Cytotoxicity against rat L6 cells; assay type: cell-based
Leishmania donovani [18] = test: Antiparasitic activity against Leishmania donovani MHOM-ET-67/L82 axenic amastigotes; assay type: functional
Plasmodium falciparum [19] = test: Antiparasitic activity against intraerythrocytic form of chloroquine/pyrimethamine-resistant Plasmodium falciparum K1; assay type: functional

SMILES	inhibition of growth at 4.8 µg/mL (Leishmania donovani [1]) [%]	inhibition of growth at 0.8 µg/mL (Leishmania donovani [2]) [%]	IC50 (Leishmania donovani [3]) [µM]	inhibition of growth at 0.8 µg/mL [4] [%]	inhibition of growth at 4.8 µg/mL (Trypanosoma cruzi [5]) [%]	inhibition of growth at 0.8 µg/mL (Trypanosoma cruzi [6]) [%]	Activity (Plasmodium falciparum [7])	IC50 (Trypanosoma cruzi [8]) [µM]	inhibition of growth at 0.8 µg/mL (Plasmodium falciparum [9]) [%]	inhibition of growth at 4.8 µg/mL (Plasmodium falciparum [10]) [%]	selectivity ratio [11]	inhibition of growth at 4.8 µg/mL [12] [%]	IC50 (L6 [13]) [µM]	selectivity ratio [14]	IC50 (Plasmodium falciparum [7]) [µM]	selectivity ratio [15]	IC50 (Trypanosoma cruzi [16]) [µM]	IC50 (L6 [17]) [µM]	IC50 (Leishmania donovani [18]) [µM]	IC50 (Plasmodium falciparum [19]) [µM]
CCCCCCCCCCCCCCCCOP(=O)([O-])OCC[N+](C)(C)C [MILTEFOSINE]	93.3	60.1	0.25																	
O=[N+]([O-])c1ccc(S(=O)(=O)N2CCc3ccccc32)cc1	100	37.6		27.4	100	34.7	Active	1.15	0	69.7	7.9	98	9.1							
Cc1cc(C)c(C)c(S(=O)(=O)N2CCc3ccccc32)c1C	100	61.3	0.73	5.5	31.4	10.3			3.3	41.8		5.7	12.6	17.2						
CC1CCc2ccccc2N1S(=O)(=O)c1ccc(C(C)(C)C)cc1 (stereo unspecified)	100	62	2.16	8.2	100	28		6.06	79.9	100	1.12	0	6.81	3.15	1.5	4.57				
O=S(=O)(c1ccc(Cl)cc1)N1CCCc2ccccc21											1.28			1.09		2.43	16	20.5	18.9	8.43
Cc1cc(C)c(C)c(S(=O)(=O)N2c3ccccc3CCC2C)c1C (stereo unspecified)	100	73.1	0.62	0	69.3	9.7			6.7	78		0	12.4	20						
Cc1cc(C)c(C)c(S(=O)(=O)N2CCCc3ccccc32)c1C	100	94.2	0.36	2.7	60.3	15.5			3.1	56.5		3.7	2.71	7.53						
CC1CCc2ccccc2N1S(=O)(=O)c1cccc(C(F)(F)F)c1 (stereo unspecified)	82.3	25.8		1.8	95.6	5.4		6.6	5.8	81.3	1.98	0	13.1							
CC1Cc2ccccc2N1S(=O)(=O)c1ccc([N+](=O)[O-])cc1 (stereo unspecified)	79.5	41.7		6.9	94.4	19.4	Active	2.8	18	72.6	24.8	68.2	69.4							
CC1Cc2ccccc2N1S(=O)(=O)c1ccc(Cl)cc1 (stereo unspecified)	83.3	9		6.5	100	0		4.79	17.7	87.9	2.31	4	11.1							
Cc1cc(C)c(C)c(S(=O)(=O)N2CCc3ccccc3C2)c1C	100	63.3	0.76	2	23.1	1.8			4.5	18.8		1.7	3.6	4.8						
CC1CCc2ccccc2N1S(=O)(=O)c1ccc(C(F)(F)F)cc1 (stereo unspecified)	96	29		5.5	98.2	5.3		5.89	26.4	98.8	2	8.1	12.2							
O=[N+]([O-])c1ccc(S(=O)(=O)N2CCCc3ccccc32)cc1											21.7					29.9	11.4	248	> 271	8.31
Cc1cc(C)c(C)c(S(=O)(=O)n2ccc3ccccc32)c1C	100	76.4	0.64	3.1	24.7	0.2			3.2	41.4		2.7	8.97	13.4						
CC1Cc2ccccc2N1S(=O)(=O)c1ccc(C(C)(C)C)cc1 (stereo unspecified)	100	53.3	1.53	0	100	7.7		6.98	52.8	99.9	1.74	6.4	12.2	7.95	1.5	8.1				
O=S(=O)(c1ccc(Br)cc1)N1CCCc2ccccc21											0.53			0.34		1.11	13.8	7.36	21.4	6.65
Cc1cc(C)c(C)c(S(=O)(=O)N2c3ccccc3CC2C)c1C (stereo unspecified)	100	77.2	0.23	0	75.2	0			5.5	76.7		0	6.62	28.8						
